Results published in ChEMBL document CHEMBL3124810, “Synthesis and biological evaluation of novel benzamide derivatives as potent smoothened antagonists” (Bioorg Med Chem Lett, 2014).
The source made the active and inactive calls. The calls are words filed in the database; no cut-off is given here.

Species: Danio rerio
Test: Antagonist activity at smoothened in zebrafish embryo assessed as reduction in Gli-dependent RFP expression compound treated at 20 to 80 uM at 2 hrs post fertilization measured 36 hrs post fertilization
Details: not given

Row | inhibition | Compound
1 | Active | CS(=O)(=O)c1ccc(C(=O)Nc2ccc(Cl)c(C(=O)Nc3cccc(O)c3)c2)c(Cl)c1
2 | Active | CS(=O)(=O)c1ccc(C(=O)Nc2ccc(Cl)c(-c3ccccn3)c2)c(Cl)c1

System: SW1353
Test: Antiproliferative activity against human SW1353 cells assessed as growth inhibition at 10 uM after 48 hrs by MTT assay
Assay type: functional, cell-based
Details: not given

Row | Compound | growth inhibition (GI)
3 | CS(=O)(=O)c1ccc(C(=O)Nc2ccc(Cl)c(C(=O)Nc3cccc(O)c3)c2)c(Cl)c1 | Active
4 | CS(=O)(=O)c1ccc(C(=O)Nc2ccc(Cl)c(-c3ccccn3)c2)c(Cl)c1 | Active

System: A549
Test: Antiproliferative activity against human A549 cells assessed as growth inhibition at 10 uM after 48 hrs by MTT assay
Assay type: functional, cell-based
Details: not given

Row | Compound | growth inhibition (GI)
5 | CS(=O)(=O)c1ccc(C(=O)Nc2ccc(Cl)c(C(=O)Nc3cccc(O)c3)c2)c(Cl)c1 | Active
6 | CS(=O)(=O)c1ccc(C(=O)Nc2ccc(Cl)c(-c3ccccn3)c2)c(Cl)c1 | Active

System: Daoy
Test: Antiproliferative activity against human DaOY cells assessed as growth inhibition at 10 uM after 48 hrs by MTT assay
Assay type: functional, cell-based
Details: not given

Row | Compound | growth inhibition (GI)
7 | CS(=O)(=O)c1ccc(C(=O)Nc2ccc(Cl)c(C(=O)Nc3cccc(O)c3)c2)c(Cl)c1 | Active
8 | CS(=O)(=O)c1ccc(C(=O)Nc2ccc(Cl)c(-c3ccccn3)c2)c(Cl)c1 | Active

System: HCT-116
Test: Antiproliferative activity against human HCT116 cells assessed as growth inhibition at 10 uM after 48 hrs by MTT assay
Assay type: functional, cell-based
Details: not given

Row | Compound | growth inhibition (GI)
9 | CS(=O)(=O)c1ccc(C(=O)Nc2ccc(Cl)c(C(=O)Nc3cccc(O)c3)c2)c(Cl)c1 | Active
10 | CS(=O)(=O)c1ccc(C(=O)Nc2ccc(Cl)c(-c3ccccn3)c2)c(Cl)c1 | Active

System: not listed separately
Test: Inhibition of Hedgehog signaling in mouse NIH/3T3 cells assessed as down regulation of mPTCH1 mRNA expression at 10 uM
Assay type: cell-based
Details: NIH3T3

Row | Compound | inhibition
11 | CS(=O)(=O)c1ccc(C(=O)Nc2ccc(Cl)c(C(=O)Nc3cccc(O)c3)c2)c(Cl)c1 | Active
12 | CS(=O)(=O)c1ccc(C(=O)Nc2ccc(Cl)c(-c3ccccn3)c2)c(Cl)c1 | Active

System: not listed separately
Test: Inhibition of hedgehog signaling in mouse MSC cells assessed as down regulation of alkaline phosphatase at 20 to 80 uM
Assay type: cell-based
Details: not given

Row | Compound | inhibition
13 | CS(=O)(=O)c1ccc(C(=O)Nc2ccc(Cl)c(C(=O)Nc3cccc(O)c3)c2)c(Cl)c1 | Active
14 | CS(=O)(=O)c1ccc(C(=O)Nc2ccc(Cl)c(-c3ccccn3)c2)c(Cl)c1 | Active

Target: T1, Protein smoothened (Homo sapiens, UniProt Q99835)
T1 sequence (Q99835 whole entry): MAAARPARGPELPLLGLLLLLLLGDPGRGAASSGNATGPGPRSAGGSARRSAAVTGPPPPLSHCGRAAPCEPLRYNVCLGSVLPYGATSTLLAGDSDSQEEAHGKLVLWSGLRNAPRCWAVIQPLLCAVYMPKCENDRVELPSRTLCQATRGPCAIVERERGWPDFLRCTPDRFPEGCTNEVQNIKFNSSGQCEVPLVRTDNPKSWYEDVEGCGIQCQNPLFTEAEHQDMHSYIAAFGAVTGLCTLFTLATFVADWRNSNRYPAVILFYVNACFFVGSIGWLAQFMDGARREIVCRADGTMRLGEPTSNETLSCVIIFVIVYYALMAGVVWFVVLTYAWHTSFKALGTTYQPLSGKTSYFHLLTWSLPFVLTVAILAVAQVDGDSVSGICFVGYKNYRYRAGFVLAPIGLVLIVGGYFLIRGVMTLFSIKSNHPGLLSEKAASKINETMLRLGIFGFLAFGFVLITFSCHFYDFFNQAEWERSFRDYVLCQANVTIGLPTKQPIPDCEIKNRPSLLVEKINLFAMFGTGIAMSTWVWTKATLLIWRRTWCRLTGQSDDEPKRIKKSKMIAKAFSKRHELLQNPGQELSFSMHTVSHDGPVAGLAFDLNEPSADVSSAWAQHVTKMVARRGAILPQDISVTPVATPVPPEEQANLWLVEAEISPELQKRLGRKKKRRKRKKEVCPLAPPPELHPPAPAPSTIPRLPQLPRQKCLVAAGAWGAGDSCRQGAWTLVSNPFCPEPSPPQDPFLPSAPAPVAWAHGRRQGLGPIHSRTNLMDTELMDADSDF
Test: Displacement of BODIPY-cyclopamine from human SMO cyclopamine-binding site expressed in HEK293 cells at 10 to 100 nM after 4 hrs by Hoechst 33342 staining-based assay
Assay type: cell-based
Details: not given

Row | Activity | Compound
15 | Active | CS(=O)(=O)c1ccc(C(=O)Nc2ccc(Cl)c(C(=O)Nc3cccc(O)c3)c2)c(Cl)c1

Target: T1, Protein smoothened
Test: Displacement of BODIPY-cyclopamine from human SMO cyclopamine-binding site expressed in HEK293 cells at 50 to 200 nM after 4 hrs by Hoechst 33342 staining-based assay
Assay type: cell-based
Details: not given

Row | Activity | Compound
16 | Active | Cc1cccc(NC(=O)c2cc(NC(=O)c3ccc(S(C)(=O)=O)cc3Cl)ccc2Cl)c1C

Target: T1, Protein smoothened
Test: Antagonist activity at smoothened (unknown origin) expressed in mouse Shh Light2 cells co-expressing Gli-dependent reporter gene assessed as inhibition of Shh signaling at 0.5 uM by dual luciferase reporter gene assay
Assay type: functional, cell-based
Details: Shh Light II

Row | inhibition | Compound
17 | inactive | CS(=O)(=O)c1ccc(C(=O)Nc2ccc(Cl)c(NC(=O)Nc3ccc(Br)cc3F)c2)c(Cl)c1
18 | inactive | CCOc1ccc(NC(=O)Nc2cc(NC(=O)c3ccc(S(C)(=O)=O)cc3Cl)ccc2Cl)cc1
19 | inactive | COc1ccc(NC(=O)Nc2cc(NC(=O)c3ccc(S(C)(=O)=O)cc3Cl)ccc2Cl)cc1
20 | inactive | CS(=O)(=O)c1ccc(C(=O)Nc2ccc(Cl)c(NC(=O)Nc3ccc(Cl)cc3)c2)c(Cl)c1

Target: T1, Protein smoothened
Test: Antagonist activity at smoothened (unknown origin) expressed in mouse Shh Light2 cells co-expressing Gli-dependent reporter gene assessed as inhibition of Shh signaling at 2 uM by dual luciferase reporter gene assay
Assay type: functional, cell-based
Details: Shh Light II

Row | inhibition | Compound
21 | 72.2% | CS(=O)(=O)c1ccc(C(=O)Nc2ccc(Cl)c(C(=O)Nc3cccc(O)c3)c2)c(Cl)c1
22 | 69.8% | COc1ccc(NC(=O)c2cc(NC(=O)c3ccc(S(C)(=O)=O)cc3Cl)ccc2Cl)cc1
23 | 72.9% | CS(=O)(=O)c1ccc(C(=O)Nc2ccc(Cl)c(C(=O)Nc3cccnc3)c2)c(Cl)c1
24 | 3.6% | COc1cc(OC)cc(C(=O)Nc2cc(NC(=O)c3ccc(S(C)(=O)=O)cc3Cl)ccc2Cl)c1
25 | 76.3% | Cc1cccc(NC(=O)c2cc(NC(=O)c3ccc(S(C)(=O)=O)cc3Cl)ccc2Cl)c1C
26 | 56.8% | Cc1cc(C)cc(NC(=O)c2cc(NC(=O)c3ccc(S(C)(=O)=O)cc3Cl)ccc2Cl)c1
27 | 73% | Cc1ccccc1NC(=O)c1cc(NC(=O)c2ccc(S(C)(=O)=O)cc2Cl)ccc1Cl
28 | 67.5% | Cc1ccc(NC(=O)c2cc(NC(=O)c3ccc(S(C)(=O)=O)cc3Cl)ccc2Cl)cc1
29 | 65.9% | CCc1ccccc1NC(=O)c1cc(NC(=O)c2ccc(S(C)(=O)=O)cc2Cl)ccc1Cl
30 | 70.4% | CCOc1ccc(NC(=O)c2cc(NC(=O)c3ccc(S(C)(=O)=O)cc3Cl)ccc2Cl)cc1
31 | 46.6% | CS(=O)(=O)c1ccc(C(=O)Nc2ccc(Cl)c(C(=O)Nc3cc(Cl)cc(Cl)c3)c2)c(Cl)c1
32 | 0% | CS(=O)(=O)c1ccc(C(=O)Nc2ccc(Cl)c(C(=O)Nc3ccc(Cl)cc3Cl)c2)c(Cl)c1

More lines, now with the values behind:

Row | Compound | inhibition
33 | CS(=O)(=O)c1ccc(C(=O)Nc2ccc(Cl)c(NC(=O)c3ccc(Cl)s3)c2)c(Cl)c1 | 51.4%
34 | CS(=O)(=O)c1ccc(C(=O)Nc2ccc(Cl)c(NC(=O)Nc3ccc(Br)cc3F)c2)c(Cl)c1 | 55.4%
35 | CCOc1ccc(NC(=O)Nc2cc(NC(=O)c3ccc(S(C)(=O)=O)cc3Cl)ccc2Cl)cc1 | 66.1%
36 | CS(=O)(=O)c1ccc(C(=O)Nc2ccc(Cl)c(NC(=O)c3cccc(C(F)(F)F)c3)c2)c(Cl)c1 | 28.4%
37 | COc1ccc(NC(=O)Nc2cc(NC(=O)c3ccc(S(C)(=O)=O)cc3Cl)ccc2Cl)cc1 | 73.8%
38 | CS(=O)(=O)c1ccc(C(=O)Nc2ccc(Cl)c(NC(=O)c3ccccn3)c2)c(Cl)c1 | 53.2%
39 | CS(=O)(=O)c1ccc(C(=O)Nc2ccc(Cl)c(NC(=O)c3ccc(Cl)cn3)c2)c(Cl)c1 | 30.5%
40 | CS(=O)(=O)c1ccc(C(=O)Nc2ccc(Cl)c(NC(=O)Nc3ccc(Cl)cc3)c2)c(Cl)c1 | 0%

Target: T1, Protein smoothened
Test: Antagonist activity at smoothened (unknown origin) expressed in mouse Shh Light2 cells co-expressing Gli-dependent reporter gene assessed as inhibition of Hh signaling by dual luciferase reporter gene assay
Assay type: functional, cell-based, Shh Light II
Details: not given

Row | IC50 | Compound
41 | 40 nM | CS(=O)(=O)c1ccc(C(=O)Nc2ccc(Cl)c(C(=O)Nc3cccc(O)c3)c2)c(Cl)c1
42 | 100 nM | Cc1cccc(NC(=O)c2cc(NC(=O)c3ccc(S(C)(=O)=O)cc3Cl)ccc2Cl)c1C
43 | 300 nM | CS(=O)(=O)c1ccc(C(=O)Nc2ccc(Cl)c(NC(=O)Nc3ccc(C(F)(F)F)cc3Cl)c2)c(Cl)c1
